How the values were obtained:
Assay in all cases: LANCE cAMP accumulation, transfected CHO-K1 cells
Type in all cases: cell-based
[1] = target: TSHR (full-length, 21-764) (Homo sapiens, UniProt P16473, V586A)
[2] = target: TSHR (full-length, 21-764) (Homo sapiens, UniProt P16473, M572A)
[3] = target: TSHR (full-length, 21-764) (Homo sapiens, UniProt P16473, I640A)
[4] = target: TSHR (full-length, 21-764) (Homo sapiens, UniProt P16473)
[5] = target: TSHR (full-length, 21-764) (Homo sapiens, UniProt P16473, A644F)
Chain of TSHR (full-length, 21-764) (Homo sapiens, UniProt P16473, A644F) (P16473 21-764 A644F): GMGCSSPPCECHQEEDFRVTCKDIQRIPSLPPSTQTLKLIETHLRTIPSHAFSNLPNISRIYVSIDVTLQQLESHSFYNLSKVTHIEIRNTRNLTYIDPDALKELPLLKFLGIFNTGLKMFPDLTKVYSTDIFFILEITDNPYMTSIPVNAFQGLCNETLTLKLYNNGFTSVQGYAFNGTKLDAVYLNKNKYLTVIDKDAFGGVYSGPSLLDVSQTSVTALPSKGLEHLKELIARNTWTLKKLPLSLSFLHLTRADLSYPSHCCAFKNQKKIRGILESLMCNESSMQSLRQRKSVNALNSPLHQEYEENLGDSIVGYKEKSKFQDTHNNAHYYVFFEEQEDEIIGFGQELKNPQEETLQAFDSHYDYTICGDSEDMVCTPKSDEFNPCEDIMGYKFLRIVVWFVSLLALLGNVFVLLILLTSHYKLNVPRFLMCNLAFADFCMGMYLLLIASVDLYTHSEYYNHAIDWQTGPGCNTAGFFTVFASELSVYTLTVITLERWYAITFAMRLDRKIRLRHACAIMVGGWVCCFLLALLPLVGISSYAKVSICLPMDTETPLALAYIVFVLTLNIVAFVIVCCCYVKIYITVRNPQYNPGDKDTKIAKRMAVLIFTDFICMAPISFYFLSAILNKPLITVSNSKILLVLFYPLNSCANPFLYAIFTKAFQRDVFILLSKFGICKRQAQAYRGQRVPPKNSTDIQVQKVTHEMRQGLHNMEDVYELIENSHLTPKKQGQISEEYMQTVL

Chain of TSHR (full-length, 21-764) (Homo sapiens, UniProt P16473, I640A) (P16473 21-764 I640A): as the sequence (P16473 21-764 A644F) above, with I620A, F624A counted along it
Chain of TSHR (full-length, 21-764) (Homo sapiens, UniProt P16473, M572A) (P16473 21-764 M572A): as the sequence (P16473 21-764 A644F) above, with M552A, F624A counted along it
Chain of TSHR (full-length, 21-764) (Homo sapiens, UniProt P16473, V586A) (P16473 21-764 V586A): as the sequence (P16473 21-764 A644F) above, with V566A, F624A counted along it
Chain of TSHR (full-length, 21-764) (Homo sapiens, UniProt P16473) (P16473 21-764): as the sequence (P16473 21-764 A644F) above, with F624A counted along it

**Q.** Which EC50 [1] does the source give for COc1ccc([C@H]2Nc3cccc(O)c3C(=O)N2Cc2ccccc2)cc1COc1ccc(NC(C)=O)cc1 [ML-109] here?
**A.** The EC50 was 2040 nM.

**Q.** What about the EC50 [2] of the same molecule?
**A.** The EC50 was 2400 nM.

**Q.** And the EC50 [3]?
**A.** The EC50 was 1150 nM.

**Q.** And the EC50 [4]?
**A.** Its EC50 is 331 nM.

**Q.** What about the EC50 [5] of the same molecule?
**A.** Its EC50 is 1780 nM.

Source: doi:10.1101/2022.06.13.496020v1 (biorxiv, 2022)
